System: cancer cells
Assay: Cytotoxicity assay of SeeloMab (PankoMab-ADC), statements for the cancer cells in general
Assay type: cell-based, human
Conditions: pretreated for 3 days vs non-pretreated
Protocol: The cytotoxic potential of a TA-MUC1 targeting antibody drug conjugate (ADC) was investigated using SeeloMab, the ADC format of PankoMab with a microtubule inhibitor as toxin. Therefore, cells were pre-incubated for 3 days with an optimum concentration of EGFR inhibitor. […] After 3 days the antigen expression was confirmed by flow cytometry and cells were seeded at equal cell density (5000 cells/well) into the wells of a microtiter plate. Cells were incubated with different concentrations of SeeloMab, an isotype matched control ADC and unconjugated PankoMab served as negative control. After 4 days viability of the cells was measured using Celltiter-Glo Luminescent Cell Viability Assay (Promega) and percent proliferation was calculated relative to medium control.

Structure (SMILES): C#Cc1cccc(Nc2ncnc3cc(OCCOC)c(OCCOC)cc23)c1 [Erlotinib]
- reduction of proliferation by anti-TA-MUC1 ADC when cancer cells were pretreated with EGFR inhibitor: significantly stronger

Reference: patent US20190343953A1, “ANTI-CANCER TREATMENTS WITH AN ANTI-MUC1 ANTIBODY AND AN ERBB INHIBITOR” (Glycotope GmbH, priority 2017, published 2019)
